Experimental data reported in patent publication US20100015058A1, “RADIOLABELED BBN-RGD HETERODIMERS FOR CANCER TARGETING” (STANFORD UNIVERSITY, priority 2008, published 2010).

Assays:
GRPR = target: T1, GRPR (Homo sapiens, UniProt P30550); assay: Displacement cell-binding assay with ^125I-[Tyr4]BBN on PC-3 cells; details: FIG. 34B, PEG3-Glu-RGD-BBN series; read-out: IC50, displacement of ^125I-[Tyr4]BBN from PC-3 cells
T1 construct: Experiments were performed on GRPR-expressing PC-3 cells following our previously described procedure; endogenous in cells; host or cells: PC-3 human prostate carcinoma cells
T1 sequence (P30550 whole entry): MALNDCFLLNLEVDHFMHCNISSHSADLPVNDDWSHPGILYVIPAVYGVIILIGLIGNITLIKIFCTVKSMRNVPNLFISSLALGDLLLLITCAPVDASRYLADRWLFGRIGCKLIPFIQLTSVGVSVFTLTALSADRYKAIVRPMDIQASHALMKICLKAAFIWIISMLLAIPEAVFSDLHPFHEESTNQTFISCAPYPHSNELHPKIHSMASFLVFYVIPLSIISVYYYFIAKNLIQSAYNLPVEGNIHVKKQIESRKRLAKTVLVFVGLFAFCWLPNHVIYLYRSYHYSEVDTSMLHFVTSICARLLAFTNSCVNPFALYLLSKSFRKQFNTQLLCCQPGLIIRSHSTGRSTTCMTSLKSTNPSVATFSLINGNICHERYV
Protocol: Experiments were performed with triplicate samples.
BBN as the radioligand. […] Experiments were performed twice with triplicate samples.

PC-3 tumor cells [1] = assay: Cell uptake assay on PC-3 tumor cells; assay type: cell-based, human; details: PC-3 cells
Protocol: In the cell uptake experiment, PC-3 cells were seeded into 12-well plates at a density of 5×10^5 cells per well for overnight incubation. Cells were rinsed 3 times with phosphate-buffered saline (PBS), followed by the addition of ^18F-FB-RGD, ^18F-FB-BBN, or ^18F-BBN-RGD to the cultured wells in triplicate (about 2 μCi/well). […] The cell lysate was collected in measurement tubes for counting. The cell uptake was normalized in terms of added radioactivity.
(§1) The cell uptake studies were performed as we have previously described with some modifications (Chen et al., Mol Imaging Biol. (2004) […]; Cai et al., (2006) J. Nuc. Med. 47: 1172-1180, incorporated herein by reference in their entireties). Briefly, PC-3 cells were seeded into 12-well plates at a density of 5×10^5 cells per well and incubated (about 18 kBq/well) with ^68Ga-labeled tracers at 37° C. for 15, 30, 60, and 120 min. Tumor cells were then washed three times with chilled PBS and harvested by trypsinization with 0.25% trypsin/0.02% EDTA (Invitrogen). The cell suspensions were collected and measured in a y counter (Packard, Meriden, Conn.). The cell uptake was expressed as the percent added dose (% AD) after decay correction. Experiments were performed twice with triplicate wells. For efflux studies, ^68Ga-labeled tracers (about 18 kBq/well) were first incubated with PC-3 cells in 12-well plates for 1 h at 37° C. to allow internalization. Then cells were washed twice with PBS, and incubated with cell culture medium for 15, 30, and 60 min. After washing three times with PBS, cells were harvested by trypsinization with 0.25% trypsin/0.02% EDTA. The cell suspensions were collected and measured in a γ counter. Experiments were performed twice with triplicate wells. Data are expressed as percent added dose after decay correction.

in vivo [2] = details: mouse, in vivo, iv, total radioactivity
Protocol: (a) PET scans and image analysis were performed using a micro-PET R4 rodent model scanner (Siemens Medical Solutions) as reported by Li et al., J. Nucl. Med. (2007) 48: 1162-1171 and Wu et al., J Nucl. Med. (2005) 46: 1707-1718, both of which are incorporated herein by reference in their entireties). […] Five-minute static PET images were then acquired at 0.5, 1, and 2 h after injection. The images were reconstructed by a 2-dimensional ordered-subsets expectation maximum (OSEM) algorithm. No attenuation or scatter correction was applied. […] The 5-min static PET scans were then acquired at 1 hr after injection. For each small-animal PET scan, regions of interest (ROIs) were drawn over the tumor, normal tissue, and major organs by using vendor software (ASI Pro 5.2.4.0) on decay-corrected whole-body coronal images. The average radioactivity concentration (accumulation) within a tumor or an organ was obtained from mean pixel values within the multiple ROI volume, which were converted to counts/mL/min using a conversion factor. Assuming a tissue density of 1 g/mL, the ROIs were converted to counts/g/min, and then divided by the administered activity to obtain an imaging ROI-derived percentage injected dose per gram of tissue (% ID/g).
For dynamic PET, 30-min scans (1×30 s, 4×1 min, 1×1.5 min, 4×2 min, 5×3 min; total 15 frames) were started 1 min after injection, and two 5-min static PET images were also acquired at 1 h and 2 h after injection. […] For each small-animal PET scan, regions of interest (ROIs) were drawn over the tumor, normal tissue, and major organs using vendor software ASI Pro 5.2.4.0 on decay-corrected whole-body coronal images. The maximum radioactivity concentrations (accumulation) within a tumor or an organ were obtained from mean pixel values within the multiple ROI volume, and were converted to megabecquerels per milliliter per minute using a conversion factor. These values were then divided by the administered activity to obtain (assuming a tissue density of 1 g/ml) an image ROI-derived percent injected dose per gram (% ID/g).
The images were reconstructed using a 2-dimensional ordered-subsets expectation maximum algorithm without attenuation or scatter correction.
For each small-animal PET scan, regions of interest were drawn over each tumor, over normal tissue, and over major organs using vendor software (ASI Pro, version 5.2.4.0) on decay-corrected whole-body coronal images. The maximum radioactivity concentration (accumulation) within a tumor or an organ was obtained from the mean pixel values within the multiple-region-of-interest volume, which were converted to MBq/mL/min using a conversion factor. Assuming a tissue density of 1 g/mL, the regions of interest were converted to MBq/g/min and then divided by the administered activity to obtain an imaging region-of-interest-derived percentage injected dose (% ID)/g.

in vivo [3] = assay: in vivo; design: species or system mice; details: female, BALB/c, mouse, iv, 3.7 MBq, total radioactivity
Protocol: The 4T1 murine breast cancer cell line was purchased from American Type Culture Collection and grown in RMPI 1640 medium (Invitrogen Corp.) supplemented with 10% (v/v) fetal bovine serum (Invitrogen) at 37° C. with 5% CO2. The 4T1 tumor model was generated by subcutaneous injection of 5×10^6 tumor cells into the left front flank of female normal BALB/c mice (Harlan).
Five-minute static PET images were then acquired at 2 h after injection (n=3/group).

[4] = Small-animal PET of MDA-MB-435 tumor-bearing mice; details: female, athymic nude, mouse, in vivo, iv, 3.7 MBq, total radioactivity, MDA-MB435 tumor uptake
Protocol: The MDA-MB435 tumor model was established by orthotopic injections of 5×10^6 cells into the right mammary fat pad of female athymic nude mice. […] The mice were subjected to microPET studies when the tumor volume reached 100-300 mm^3 (2-3 weeks for MDA-MB-435, and 4-5 wk for T47D).
For static PET, 5-min scans were acquired at 30 min, 1 h, and 2 h after injection. For dynamic PET, 30-min scans (1×30 s, 4×1 min, 1×1.5 min, 4×2 min, 5×3 min; total 15 frames) were started 1 min after injection, and two 5-min static PET images were also acquired at 1 h and 2 h after injection. The images were reconstructed using a two-dimensional ordered subsets expectation maximum (OSEM) algorithm and no correction was applied for attenuation or scatter. […] For each small-animal PET scan, regions of interest (ROIs) were drawn over the tumor, normal tissue, and major organs using vendor software ASI Pro 5.2.4.0 on decay-corrected whole-body coronal images. The maximum radioactivity concentrations (accumulation) within a tumor or an organ were obtained from mean pixel values within the multiple ROI volume, and were converted to megabecquerels per milliliter per minute using a conversion factor. These values were then divided by the administered activity to obtain (assuming a tissue density of 1 g/ml) an image ROI-derived percent injected dose per gram (% ID/g).
Quantification of tumor and major organ activity accumulation in the microPET scans was realized by measuring the regions of interest (ROIs) that encompassing the entire organ on the coronal images.

PC-3 tumor cells [5] = assay type: cell-based, human; details: PC-3 cells, 60 min efflux, FIG. 14D
Protocol: In the cell efflux experiment, PC-3 cells were seeded into 12-well plates at a density of 5×10^5 cells per well for overnight incubation. Cells were rinsed 3 times with PBS and then the appropriate ^18F-labeled peptide tracer was added. The cells were incubated at 37° C. for 2 hr, washed with PBS, and then reincubated with serum-free medium. The cells were washed at different time points (0, 15, 30, 60, 120, 180 min) with PBS and lysed with NaOH-SDS (0.2 M NaOH, 1% SDS). The cell lysate was collected in measurement tubes for counting. Efflux values at different time points were calculated by subtracting retention from 0-min retention, and normalized by dividing the total counts at 0 min.
as §1

DU-145 tumor = assay type: in vivo, mice; details: integrin αvβ3-positive, low GRPR-expressing tumor
Protocol: The PC-3 and DU-145 human prostate carcinoma cell lines were purchased from American Type Culture Collection. PC-3 cells were grown in F-12K nutrient mixture (Kaighn's modification) (Invitrogen Corp.), and DU-145 cells were grown in minimum essential medium (Eagle) mixture supplemented with 10% (v/v) fetal bovine serum (Invitrogen) at 37° C. with 5% CO2. The PC-3 and DU-145 tumor models were generated by subcutaneous injection of 5×10^6 tumor cells into the front flank of male athymic nude mice (Harlan).
No attenuation or scatter correction was applied.

[6] = male, athymic nude, 5.5 MBq, Blood uptake
[7] = male, athymic nude, 5.5 MBq, Tumor uptake

tissue uptake at 0.5 h (in vivo [2]; [7]) [%ID/g]	tissue uptake at 1 h (in vivo [2]; [7]) [%ID/g]	tissue uptake at 4 h (in vivo [2]; [7]) [%ID/g]	tissue uptake at 20 h (in vivo [2]; [7]) [%ID/g]	tissue uptake at 1 h (in vivo [2]; 5.5 MBq, Blood uptake) [%ID/g]	tissue uptake at 4 h (in vivo [2]; 5.5 MBq, Blood uptake) [%ID/g]	tissue uptake at 20 h (in vivo [2]; 5.5 MBq, Blood uptake) [%ID/g]	tissue uptake at 0.5 h (in vivo [2]; 5.5 MBq, Kidney uptake) [%ID/g]	tissue uptake at 1 h (in vivo [2]; 5.5 MBq, Kidney uptake) [%ID/g]	tissue uptake at 4 h (in vivo [2]; 5.5 MBq, Kidney uptake) [%ID/g]	tissue uptake at 20 h (in vivo [2]; 5.5 MBq, Kidney uptake) [%ID/g]	tissue uptake at 0.5 h (in vivo [2]; 5.5 MBq, Liver uptake) [%ID/g]	tissue uptake at 1 h (in vivo [2]; 5.5 MBq, Liver uptake) [%ID/g]	tissue uptake at 4 h (in vivo [2]; 5.5 MBq, Liver uptake) [%ID/g]	tissue uptake at 20 h (in vivo [2]; 5.5 MBq, Liver uptake) [%ID/g]	Compound	further results
–	–	–	–	–	–	–	–	–	–	–	–	–	–	–	CSCC[C@H](NC(=O)[C@H](CC(C)C)NC(=O)[C@H](Cc1c[nH]cn1)NC(=O)CNC(=O)[C@@H](NC(=O)[C@H](C)NC(=O)[C@H](Cc1c[nH]c2ccccc12)NC(=O)[C@H](CCC(N)=O)NC(=O)CCCCCNC(=O)CC[C@H](NC(=O)COCCOCCOCCN)C(=O)NCCCC[C@@H]1NC(=O)[C@@H](Cc2ccc(O)cc2)NC(=O)[C@H](CC(=O)O)NC(=O)CNC(=O)[C@H](CCCNC(=N)N)NC1=O)C(C)C)C(N)=O [PEG3-Glu-RGD-BBN]	IC50 (GRPR): 85.4 ± 1.95 nM
3.05 ± 0.56	1.87 ± 0.41	1.05 ± 0.49	0.97 ± 0.24	0.69 ± 0.24	0.45 ± 0.2	0.31 ± 0.13	5.99 ± 1.61	3.4 ± 1.25	2.51 ± 0.47	1.64 ± 0.34	3.4 ± 1.42	3.05 ± 1.07	2.33 ± 0.88	1.74 ± 0.9	CSCC[C@H](NC(=O)[C@H](CC(C)C)NC(=O)[C@H](Cc1c[nH]cn1)NC(=O)CNC(=O)[C@@H](NC(=O)[C@H](C)NC(=O)[C@H](Cc1c[nH]c2ccccc12)NC(=O)[C@H](CCC(N)=O)NC(=O)CCCCCNC(=O)CC[C@H](NC(=O)CN1CCN(CC(=O)O)CCN(CC(=O)O)CCN(CC(=O)O)CC1)C(=O)NCCCC[C@@H]1NC(=O)[C@@H](Cc2ccc(O)cc2)NC(=O)[C@H](CC(=O)O)NC(=O)CNC(=O)[C@H](CCCNC(=N)N)NC1=O)C(C)C)C(N)=O [^64Cu-DOTA-RGD-BBN, metal not drawn]	cell uptake value (PC-3 tumor cells [1]; 120 min): 3.70 % added dose; tissue uptake at 0.5 h (in vivo [2]; [6]): 1.15 ± 0.49 %ID/g
2.28 ± 0.35	1.25 ± 1.03	0.56 ± 0.4	0.44 ± 0.39	0.23 ± 0.11	0.19 ± 0.1	0.15 ± 0.05	3.55 ± 1.17	1.5 ± 0.39	0.76 ± 0.45	0.5 ± 0.44	10.4 ± 2.27	8.85 ± 1.61	6.35 ± 0.57	4.2 ± 0.53	CSCC[C@H](NC(=O)[C@H](CC(C)C)NC(=O)[C@H](Cc1c[nH]cn1)NC(=O)CNC(=O)[C@@H](NC(=O)[C@H](C)NC(=O)[C@H](Cc1c[nH]c2ccccc12)NC(=O)[C@H](CCC(N)=O)NC(=O)CCCCCNC(=S)Nc1ccc(C[C@H]2CN(CC(=O)O)CCN(CC(=O)O)CCN2CC(=O)O)cc1)C(C)C)C(N)=O [^64Cu-NOTA-BBN, metal not drawn, reference compound]	tissue uptake at 2 h (in vivo [3]): 0.33 ± 0.18 %ID/g; tissue uptake at 0.5 h (in vivo [2]; [6]): < 1 %ID/g; tissue uptake at 24 h (in vivo [2]; [7]): 0.44 ± 0.39 %ID/g
1.01 ± 0.29	0.83 ± 0.24	0.66 ± 0.21	0.55 ± 0.32	0.43 ± 0.32	0.3 ± 0.11	0.34 ± 0.18	3.37 ± 0.89	2.13 ± 0.85	1.43 ± 0.68	0.98 ± 0.48	2.86 ± 1.06	2.68 ± 1.15	2.15 ± 0.79	1.67 ± 0.69	N=C(N)NCCC[C@@H]1NC(=O)[C@H](CCCCNC(=S)Nc2ccc(C[C@H]3CN(CC(=O)O)CCN(CC(=O)O)CCN3CC(=O)O)cc2)NC(=O)[C@@H](Cc2ccc(O)cc2)NC(=O)[C@H](CC(=O)O)NC(=O)CNC1=O [^64Cu-NOTA-RGD, metal not drawn, reference compound]	tissue uptake at 2 h (in vivo [3]): 0.65 ± 0.07 %ID/g
–	–	–	–	–	–	–	–	–	–	–	–	–	–	–	CSCC[C@H](NC(=O)[C@H](CC(C)C)NC(=O)[C@H](Cc1c[nH]cn1)NC(=O)CNC(=O)[C@@H](NC(=O)[C@H](C)NC(=O)[C@H](Cc1c[nH]c2ccccc12)NC(=O)[C@H](CCC(N)=O)NC(=O)CCCCCNC(=S)Nc1ccc(C[C@H]2CN(CC(=O)O)CCN(CC(=O)O)CCN2CC(=O)O)cc1)C(C)C)C(N)=O [^68Ga-NOTA-BBN, metal not drawn, reference compound]	tissue uptake at 1 h [4]: 0.38 ± 0.5 %ID/g; cell-associated tracer (cell retention) (PC-3 tumor cells [5]): 6.70±1.00 % AD; tissue uptake at 0.5 h (in vivo [2]; male, athymic nude, 3.7 MBq, liver uptake (highest)): 2 %ID/g
–	–	–	–	–	–	–	–	–	–	–	–	–	–	–	N=C(N)NCCC[C@@H]1NC(=O)[C@H](CCCCNC(=S)Nc2ccc(C[C@H]3CN(CC(=O)O)CCN(CC(=O)O)CCN3CC(=O)O)cc2)NC(=O)[C@@H](Cc2ccc(O)cc2)NC(=O)[C@H](CC(=O)O)NC(=O)CNC1=O [^68Ga-NOTA-RGD, metal not drawn, reference compound]	tissue uptake at 1 h [4]: 1.63 ± 0.59 %ID/g
–	–	–	–	–	–	–	–	–	–	–	–	–	–	–	^18F-FB-BBN-RGD: ^18F-fluorobenzoate-labeled heterodimer of BBN(7-14) and c(RGDyK) joined through a glutamate linker	detection of the DU-145 tumor by PET (DU-145 tumor): able to visualize this tumor model
–	–	–	–	–	–	–	–	–	–	–	–	–	–	–	^18F-FB-RGD: ^18F-fluorobenzoate-labeled monomeric RGD peptide c(RGDyK) [reference compound]	detection of the DU-145 tumor by PET (DU-145 tumor): able to visualize this tumor model; cell uptake (PC-3 tumor cells [1]; 37° C., normalized to added radioactivity): < 0.5%
